{
  "source": "paper PMC4468608",
  "about": "“A distinct p53 target gene set predicts for response to the selective p53–HDM2 inhibitor NVP-CGM097” (eLife, 2015)",
  "key": {"[1]": {"assay": "PK parameters in preclinical species", "format": "in vivo", "conditions": "Dog"}, "[2]": {"assay": "PK parameters in preclinical species", "format": "in vivo", "conditions": "Mouse"}, "[3]": {"assay": "PK parameters in preclinical species", "format": "in vivo", "conditions": "Monkey"}, "[4]": {"assay": "PK parameters in preclinical species", "format": "in vivo", "conditions": "Rat"}, "[5]": {"tested_on": "SJSA-1 (p53WT and HDM2-amplified)", "assay": "Cell proliferation assay (YOPRO)", "format": "cell-based", "conditions": "Homo sapiens, SJSA-1, read-out: SJSA-1 GI50", "description": "(§1) Figure 1. […] (^d) Selectivity is determined by the ratio of GI50 obtained using SAOS-2 (p53-null) and SJSA-1 (p53^WT and HDM2-amplified) osteosarcoma pair of cell lines. […] The data used to generate these plots, as well as cell line identity is available in Figure 1—source data 1. […] The blue color indicates the reverse profile. Brighter colors indicate which target classes pass the 0.25 FDR cut-off.\n(§2) All other cell lines were obtained from ATCC (American Type Culture Collection), DSMZ (Deutsche Sammlung von Mikroorganismen und Zellkulturen), and HSRRB (Health Science Research Resources Bank) and cultured in RPMI or Dulbecco's modified Eagle's medium plus 10% FBS (Invitrogen, Carlsbad, CA) at 37°C, 5% CO2."}, "[6]": {"tested_on": "HCT-116 p53WT", "assay": "Cell proliferation assay (YOPRO)", "format": "cell-based", "conditions": "Homo sapiens, HCT-116, read-out: HCT-116 p53WT GI50", "description": "as §1, §2"}, "[7]": {"tested_on": "HCT-116 p53-null", "assay": "Cell proliferation assay (YOPRO)", "format": "cell-based", "conditions": "Homo sapiens, HCT116-p53-null", "description": "as §1, §2"}, "[8]": {"tested_on": "SAOS-2 (p53-null)", "assay": "Cell proliferation assay (YOPRO)", "format": "cell-based", "conditions": "Homo sapiens", "description": "as §1, §2"}, "[9]": {"conditions": "single dose 0.1 mg/kg i.v. or 0.3 mg/kg p.o."}, "[10]": {"conditions": "in vivo, iv, 0.1 mg/kg i.v., dose-normalized to 1 mg/kg, read-out: AUCinf i.v."}, "[11]": {"conditions": "in vivo, iv, single dose 0.1 mg/kg i.v. or 0.3 mg/kg p.o."}, "[12]": {"conditions": "in vivo, iv, single dose 0.1 mg/kg i.v. or 0.3 mg/kg p.o., read-out: Vss"}, "[13]": {"conditions": "in vivo, po, 0.3 mg/kg p.o., dose-normalized to 1 mg/kg"}, "[14]": {"conditions": "in vivo, po, 0.3 mg/kg p.o., dose-normalized to 1 mg/kg, read-out: AUCinf p.o."}, "[15]": {"conditions": "single dose 1 mg/kg i.v. or 3 mg/kg p.o."}, "[16]": {"conditions": "in vivo, iv, 1 mg/kg i.v., dose-normalized to 1 mg/kg, read-out: AUCinf i.v."}, "[17]": {"conditions": "in vivo, iv, single dose 1 mg/kg i.v. or 3 mg/kg p.o."}, "[18]": {"conditions": "in vivo, iv, single dose 1 mg/kg i.v. or 3 mg/kg p.o., read-out: Vss"}, "[19]": {"conditions": "in vivo, po, 3 mg/kg p.o., dose-normalized to 1 mg/kg"}, "[20]": {"conditions": "in vivo, po, 3 mg/kg p.o., dose-normalized to 1 mg/kg, read-out: AUCinf p.o."}},
  "note": "Where two headings read alike, the source gives them in different places.",
  "data": [
    {"smiles": "COc1cc2c(cc1OC(C)C)[C@H](c1ccc(Cl)cc1)N(c1ccc(N(C)C[C@H]3CC[C@H](N4CCNC(=O)C4)CC3)cc1)C(=O)C2", "note": "[NVP-CFC218]", "values": [
      {"measurement": "Oral BA", "setting": "[1]; 0.1 mg/kg i.v., 0.3 mg/kg p.o.", "value": "71 ± 8", "unit": "%F"},
      {"measurement": "t1/2app.", "setting": "[1]; [9]", "value": "14.4 ± 0.7", "unit": "h"},
      {"measurement": "AUC(0-inf)", "setting": "[1]; [10]", "value": "8.08 ± 1.68", "unit": "µM·h"},
      {"measurement": "clearance", "setting": "[1]; [11]", "value": "3 ± 1", "unit": "mL/min/kg"},
      {"measurement": "Vd", "setting": "[1]; [12]", "value": "3.6 ± 0.5", "unit": "L/kg"},
      {"measurement": "Tmax", "setting": "[1]; in vivo, po, 0.3 mg/kg p.o.", "value": "3.3 ± 1.2", "unit": "h"},
      {"measurement": "Cmax", "setting": "[1]; [13]", "value": "240 ± 43", "unit": "nM"},
      {"measurement": "AUC(0-inf)", "setting": "[1]; [14]", "value": "5.74 ± 0.68", "unit": "µM·h"},
      {"measurement": "Oral BA", "setting": "[2]; 1 mg/kg i.v., 3 mg/kg p.o.", "value": 43, "unit": "%F"},
      {"measurement": "t1/2app.", "setting": "[2]; [15]", "value": 3.6, "unit": "h"},
      {"measurement": "AUC(0-inf)", "setting": "[2]; [16]", "value": 2.8, "unit": "µM·h"},
      {"measurement": "clearance", "setting": "[2]; [17]", "value": 9, "unit": "mL/min/kg"},
      {"measurement": "Vd", "setting": "[2]; [18]", "value": 3.1, "unit": "L/kg"},
      {"measurement": "Tmax", "setting": "[2]; in vivo, po, 3 mg/kg p.o.", "value": 2, "unit": "h"},
      {"measurement": "Cmax", "setting": "[2]; [19]", "value": 94, "unit": "nM"},
      {"measurement": "AUC(0-inf)", "setting": "[2]; [20]", "value": 1.2, "unit": "µM·h"},
      {"measurement": "Oral BA", "setting": "[3]; 0.1 mg/kg i.v., 0.3 mg/kg p.o.", "value": "14 ± 2", "unit": "%F"},
      {"measurement": "t1/2app.", "setting": "[3]; [9]", "value": "2.6 ± 0.3", "unit": "h"},
      {"measurement": "AUC(0-inf)", "setting": "[3]; [10]", "value": "2.37 ± 0.31", "unit": "µM·h"},
      {"measurement": "clearance", "setting": "[3]; [11]", "value": "11 ± 2", "unit": "mL/min/kg"},
      {"measurement": "Vd", "setting": "[3]; [12]", "value": "2.1 ± 0.3", "unit": "L/kg"},
      {"measurement": "Tmax", "setting": "[3]; in vivo, po, 0.3 mg/kg p.o.", "value": "1 ± 0.1", "unit": "h"},
      {"measurement": "Cmax", "setting": "[3]; [13]", "value": "77 ± 14", "unit": "nM"},
      {"measurement": "AUC(0-inf)", "setting": "[3]; [14]", "value": "0.34 ± 0.05", "unit": "µM·h"},
      {"measurement": "Oral BA", "setting": "[4]; 1 mg/kg i.v., 3 mg/kg p.o.", "value": "49 ± 15", "unit": "%F"},
      {"measurement": "t1/2app.", "setting": "[4]; [15]", "value": "9.3 ± 1.9", "unit": "h"},
      {"measurement": "AUC(0-inf)", "setting": "[4]; [16]", "value": "2.21 ± 0.21", "unit": "µM·h"},
      {"measurement": "clearance", "setting": "[4]; [17]", "value": "12 ± 1", "unit": "mL/min/kg"},
      {"measurement": "Vd", "setting": "[4]; [18]", "value": "8 ± 1.8", "unit": "L/kg"},
      {"measurement": "Tmax", "setting": "[4]; in vivo, po, 3 mg/kg p.o.", "value": "4 ± 1.4", "unit": "h"},
      {"measurement": "Cmax", "setting": "[4]; [19]", "value": "75 ± 23", "unit": "nM"},
      {"measurement": "AUC(0-inf)", "setting": "[4]; [20]", "value": "1.07 ± 0.34", "unit": "µM·h"},
      {"measurement": "GI50", "setting": "[5]", "value": "353 ± 172", "unit": "nM"},
      {"measurement": "GI50", "setting": "[6]", "value": "473 ± 100", "unit": "nM"},
      {"measurement": "IC50", "setting": "[7]; HCT-116 p53-null cells remained insensitive", "value": "≥ 10", "unit": "µM"},
      {"measurement": "GI50", "setting": "[7]; mean ± SD, n ≥ 8", "value": 15.9, "unit": "µM"},
      {"measurement": "GI50", "setting": "[8]; SAOS-2, mean ± SD, n ≥ 8", "value": 19.8, "unit": "µM"},
      {"measurement": "IC50", "setting": "[8]; SAOS-2 p53 null cells remained insensitive", "value": "≥ 10", "unit": "µM"}
    ]}
  ]
}
